Laboratory results as given in patent publication US4778792A, “Use of 7-acyl benzoxazinones and their derivatives in treating atheromatous disorders” (Laboratories Negma, priority 1985, dated 1988).
Where a name gives a salt, the structure may show the parent alone. Read-outs that look alike come from different tables or passages of the source.

Assay: Normolipemic activity, lipid balance in normal or hypercholesterolemic mice
Assay type: in vivo
Settings: per os, 50 mg/kg daily for 15 days, with respect to a control group; for change in vivo at 50 mg/kg: Mus musculus, po, 360 h
Description: Activity of selected molecules by the Triton test in mice rendered hypercholesterolemic and normal mice: study of the lipid parameters, of the lipoprotein and apoprotein composition.
Preliminary study on the weight of the liver and histological examination of the hepatic tissue.
3.2 The normolipemic activity has also been established in OF normal mice or rendered hypercholesterolemic. The products tested were administered per os daily for 15 days at the dose of 50 mg/kg.
All the compounds were administered orally at the rate of 50 mg/kg.

[1] = read-out: CT (Total cholesterol) %
[2] = read-out: HDLC (Cholesterol fraction contained in the HDLs) %
[3] = read-out: HDLC/TC (ratio between the cholesterol contained in the HDLs and the total cholesterol) %

| SMILES | change in vivo at 50 mg/kg [1] [%] | change in vivo at 50 mg/kg [2] [%] | change in vivo at 50 mg/kg [3] [%] | change in vivo at 50 mg/kg (read-out: Phospho Lipids) [%] | change in vivo at 50 mg/kg (read-out: TG (Triglycerids) %) [%] | Liver weight / Body weight |
| --- | --- | --- | --- | --- | --- | --- |
| CC(C)OC(=O)C(C)(C)Oc1ccc(C(=O)c2ccc(Cl)cc2)cc1 [Fenofibrate, fenofibrate, reference compound] | -30 | -11 | 30 | 18 | 24 | +55% |
| CN1C(=O)C(C)(C)Oc2cc(C(=O)CCN3CCN(c4cccc(C(F)(F)F)c4)CC3)ccc21 [NM 8, 3(4-Metatrifluoromethylphenylpiperazino)7-propionyl 2,2,4 trimethyl benzoxazinone, hydrochloride] | 8 | 10 | 11 | 8 | 23 | -15% |
| CCCC(=O)c1ccc2c(c1)OC(C)(C)C(=O)N2CCC(=O)O [NM 11, 7-Butyryl 4-β carboxyethyl 2,2-dimethyl benzoxazinone] | -37 | 7 | 43 | 16 | -8 | 0% |
| CCCC(=O)c1ccc2c(c1)OC(C)(C)C(=O)N2 [MZ 95, 7-Butyryl 2,2-dimethyl benzoxazinone] | -21 | 0 | 25 | 5 | -5 | +6% |
| CC1Oc2cc(C(=O)c3ccccc3)ccc2NC1=O (centres unmarked) [MZ 115, 7-Benzoyl 2-methyl benzoxazinone] | -32 | -5 | 17 | -9 | 18 | +9% |
| CN1C(=O)C(C)(C)Oc2cc(C(=O)CCN3CCOCC3)ccc21 [NM 7, 7[3-morpholinopropionyl[2'2'4 trimethylbenzoxazinone, hydrochloride] | 2 | 5 | 14 | 5 | 5 | -10% |
| CC1Oc2cc(C(=O)C=Cc3ccc(Cl)cc3)ccc2N(C)C1=O (centres unmarked) [MZ 134, 7(4-Chlorocinnamoyl)2,4 dimethyl benzoxazinone] | – | 5 | 10 | 11 | -9 | +5% |
| CN1C(=O)C(C)(C)Oc2cc(C(=O)c3ccc(Cl)cc3)ccc21 [MZ 125, 7-(4-Chlorobenzoyl)2,2,4-trimethyl benzoxazinone] | -25 | 1 | 18 | 15 | 19 | +17% |
| CN1C(=O)C(C)(C)Oc2cc(C(=O)CCCN3CCN(c4ccc(F)cc4)CC3)ccc21 [MZ 153, 7[4(4p-fluorophenylpiperazino)butyryl]2,2,4-trimethyl benzoxazinone] | -10 | 25 | 45 | 19 | 18 | +4% |
| CN1C(=O)C(C)(C)Oc2cc(C(=O)c3ccccc3)ccc21 [MZ 119, 7-Benzoyl 2,2,4 trimethyl benzoxazinone] | -30 | -6 | 21 | 15 | 21 | +12% |
| CCCC(=O)c1ccc2c(c1)OC(C)(C)C(=O)N2C [MZ 86, 7-Butyryl 2,2,4-trimethyl benzoxazinone] | -38 | 18 | 44 | 0 | -12 | +2% |
